Measured values reported in US4588722A, “N-(4-piperidinyl) bicyclic condensed 2-imidazolamine derivatives” (priority 1984, dated 1986).

Test system: compound 48/80-induced lethality in rats
Assay: Protection of rats from compound 48/80-induced lethality
Type: in vivo, rat (male, inbred Wistar strain)
Settings: Rattus norvegicus; test compound subcutaneously or orally (route of each value not given) 1 hour before compound 48/80 0.5 mg/kg intravenously; dose protecting 50% of animals, survival after 4 hours; read-out: Compound 48/80 lethality test in rats-ED50
Text: PROTECTION OF RATS FROM COMPOUND 48/80-INDUCED LETHALITY
Compound 48/80, a mixture of oligomers obtained by condensation of 4-methoxy-N-methylbenzeneethanamine and formaldehyde has been described as a potent histamine releasing agent (Int. Arch. Allergy, 13, 336 (1958)). The protection from compound 48/80-induced lethal circulatory collapse appears to be a simple way of evaluating quantitatively the antihistaminic activity of test compounds. Male rats of an inbred Wistar strain, weighing 240-260 g were used in the experiment. After overnight starvation the rats were transferred to conditioned laboratories (temp.=21±1° C., relative humidity=65±5%). The rats were treated subcutaneously or orally with a test compound or with the solvent (NaCl solution, 0.9%). One hour after treatment there was injected intravenously compound 48/80, freshly dissolved in water, at a dose of 0.5 mg/kg (0.2 ml/100 g of body weight). In control experiments, wherein 250 solvent-treated animals were injected with the standard dose of compound 48/80, not more than 2.8% of the animals survived after 4 hours. Survival after 4 hours is therefore considered to be a safe criterion of a protective effect of drug administration.
Said ED50 -values are the values in mg/kg body weight at which the tested compounds protect 50% of the tested animals against compound 48/80-induced lethality.

Br.Br.Oc1ccc(CCN2CCC(Nc3nc4ccccc4n3Cc3cscn3)CC2)cc1 [Compound 59, 4-[2-[4-[[1-(4-thiazolylmethyl)-1H-benzimidazol-2-yl]amino]-1-piperidinyl]ethyl]phenol dihydrobromide]
ED50: 0.08 mg/kg

Fc1ccc(Cn2c(NC3CCN(CCNC(=S)N4CCOCC4)CC3)nc3ccccc32)cc1 [Compound 28, N-[2-[4-[[1-[(4-fluorophenyl)methyl]-1H-benzimidazol-2-yl]amino]-1-piperidinyl]ethyl]-4-morpholinecarbothioamide]
ED50: 0.16 mg/kg

Fc1ccc(Cn2c(NC3CCN(CCNC(=S)Nc4ccccc4)CC3)nc3ccccc32)cc1 [Compound 40, N-[2-[4-[[1-[(4-fluorophenyl)methyl]-1H-benzimidazol-2-yl]amino]-1-piperidinyl]ethyl]-N'phenylthiourea]
ED50: 0.16 mg/kg

O=CNCCN1CCC(Nc2nc3ccccc3n2Cc2ccco2)CC1 [Compound 46, N-[2-[4-[[1-(2-furanylmethyl)-1H-benzimidazol-2-yl]amino]-1-piperidinyl]ethyl]formamide hemihydrate]
ED50: 0.16 mg/kg

O.O=c1oc2ccccc2cc1CCN1CCC(Nc2nc3cccnc3n2Cc2ccc(F)cc2)CC1 [Compound 16, 3-[2-[4-[[3-[(4-fluorophenyl)methyl]-3H-imidazo [4,5-b]pyridin-2-yl]-amino]-1-piperidinyl]ethyl]-2H-1-benzopyran-2-one monohydrate]
ED50: 0.04 mg/kg

O=c1oc2ccccc2cc1CCN1CCC(Nc2nc3ccccc3n2Cc2cccs2)CC1 [Compound 8, 3-[2-[4-[[1-(2-thienylmethyl)-1H-benzimidazol-2-yl]amino]-1-piperidinyl]ethyl]-2H-1-benzopyran-2-one]
ED50: 0.16 mg/kg

O.OCCCNC(=S)NCCN1CCC(Nc2nc3ccccc3n2Cc2ccc(F)cc2)CC1 [Compound 30, N-[2-[4-[[1-[(4-fluorophenyl)methyl]-1H-benzimidazol-2-yl]amino]-1-piperidinyl]ethyl]-N'(3-hydroxypropyl)thiourea monohydrate]
ED50: 0.08 mg/kg

COc1ccc(CCN2CCC(Nc3nc4cnccc4n3Cc3ccc(F)cc3)CC2)cc1 [Compound 3, 1-[(4-fluorophenyl)methyl]-N-[1-[2-(4-methoxyphenyl)ethyl]-4-piperidinyl]-1H-imidazo[4,5-c]pyridin-2-amine]
ED50: 0.16 mg/kg
